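Values below derive from 48-hour exposures of cells grown in 96-well plates, with endpoints linearly interpolated between the two concentrations bracketing the appropriate inhibition level. At the GI50, growth is halved. TGI: concentration producing complete growth inhibition.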
What was measured:
Test in all cases: growth of human tumour cells (NCI), 48 h
NCI-H226 lung = test system: NCI-H226 lung
NCI-H23 lung = test system: NCI-H23 lung
NCI-H460 lung = test system: NCI-H460 lung
NCI-H522 lung = test system: NCI-H522 lung
NCI/ADR-RES ovarian = test system: NCI/ADR-RES ovarian
OVCAR-3 ovarian = test system: OVCAR-3 ovarian
OVCAR-4 ovarian = test system: OVCAR-4 ovarian
OVCAR-5 ovarian = test system: OVCAR-5 ovarian
OVCAR-8 ovarian = test system: OVCAR-8 ovarian
PC-3 prostate = test system: PC-3 prostate
RPMI-8226 leukemia = test system: RPMI-8226 leukemia
RXF 393 renal = test system: RXF 393 renal
SF-268 CNS = test system: SF-268 CNS
SF-295 CNS = test system: SF-295 CNS
SF-539 CNS = test system: SF-539 CNS
SK-MEL-2 melanoma = test system: SK-MEL-2 melanoma
SK-MEL-28 melanoma = test system: SK-MEL-28 melanoma
SK-MEL-5 melanoma = test system: SK-MEL-5 melanoma
SK-OV-3 ovarian = test system: SK-OV-3 ovarian
SN12C renal = test system: SN12C renal
SNB-19 CNS = test system: SNB-19 CNS
SNB-75 CNS = test system: SNB-75 CNS
SR leukemia = test system: SR leukemia
SW-620 colon = test system: SW-620 colon
T-47D breast = test system: T-47D breast
TK-10 renal = test system: TK-10 renal
U251 CNS = test system: U251 CNS
UACC-257 melanoma = test system: UACC-257 melanoma
UACC-62 melanoma = test system: UACC-62 melanoma
UO-31 renal = test system: UO-31 renal

O=C(Nc1ccc(OCc2ccc(F)cc2)cc1)Nc1ccc(Cl)c(C(F)(F)F)c1
TGI (NCI-H226 lung): 7.87 µM | GI50 (NCI-H23 lung): 2.38 µM | TGI (NCI-H23 lung): 7.17 µM | GI50 (NCI-H460 lung): 2.51 µM | TGI (NCI-H460 lung): 6.68 µM | GI50 (NCI-H522 lung): 3.03 µM | TGI (NCI-H522 lung): 12.3 µM | GI50 (NCI/ADR-RES ovarian): 2.4 µM | TGI (NCI/ADR-RES ovarian): 8.36 µM | GI50 (OVCAR-3 ovarian): 3.11 µM | TGI (OVCAR-3 ovarian): 10.6 µM | GI50 (OVCAR-4 ovarian): 2.89 µM | TGI (OVCAR-4 ovarian): 10.3 µM | GI50 (OVCAR-5 ovarian): 3.24 µM | TGI (OVCAR-5 ovarian): 12.2 µM | GI50 (OVCAR-8 ovarian): 3.52 µM | TGI (OVCAR-8 ovarian): 13.9 µM | GI50 (PC-3 prostate): 2.21 µM | TGI (PC-3 prostate): 10.7 µM | GI50 (RPMI-8226 leukemia): 2.77 µM | TGI (RPMI-8226 leukemia): 21.8 µM | GI50 (RXF 393 renal): 2.57 µM | TGI (RXF 393 renal): 7.32 µM | GI50 (SF-268 CNS): 3.37 µM | TGI (SF-268 CNS): 12.1 µM | GI50 (SF-295 CNS): 1.89 µM | TGI (SF-295 CNS): 4.82 µM | GI50 (SF-539 CNS): 3.13 µM | TGI (SF-539 CNS): 10.1 µM | GI50 (SK-MEL-2 melanoma): 2.51 µM | TGI (SK-MEL-2 melanoma): 7.15 µM | GI50 (SK-MEL-28 melanoma): 3.62 µM | TGI (SK-MEL-28 melanoma): 12.7 µM | GI50 (SK-MEL-5 melanoma): 1.68 µM | TGI (SK-MEL-5 melanoma): 3.07 µM | GI50 (SK-OV-3 ovarian): 2.28 µM | TGI (SK-OV-3 ovarian): 7.28 µM | GI50 (SN12C renal): 2.88 µM | TGI (SN12C renal): 10.3 µM | GI50 (SNB-19 CNS): 3.22 µM | TGI (SNB-19 CNS): 11.9 µM | GI50 (SNB-75 CNS): 1.33 µM | TGI (SNB-75 CNS): 6.2 µM | GI50 (SR leukemia): 2.85 µM | TGI (SR leukemia): 12.6 µM | GI50 (SW-620 colon): 3.31 µM | TGI (SW-620 colon): 11.6 µM | GI50 (T-47D breast): 2.46 µM | TGI (T-47D breast): 10.1 µM | GI50 (TK-10 renal): 3.83 µM | TGI (TK-10 renal): 14.4 µM | GI50 (U251 CNS): 2.74 µM | TGI (U251 CNS): 10.8 µM | GI50 (UACC-257 melanoma): 2.2 µM | TGI (UACC-257 melanoma): 6.68 µM | GI50 (UACC-62 melanoma): 2.25 µM | TGI (UACC-62 melanoma): 7.75 µM | GI50 (UO-31 renal): 2.37 µM | TGI (UO-31 renal): 10.1 µM

Source: PubChem BioAssay (NCI)
